Results published in US5350574A, “Derivatives of cyclosporina A, antibodies directed thereto and uses thereof” (The Trustees of Columbia University in the City of New York, priority 1991, dated 1994).
Entries after “also recorded” stand apart in the source; their conditions may differ.

Experiments:
EL-4 cells = assay: Cell agglutination assay, EL-4 cells; assay type: cell-based; conditions: inhibitor concentration not given
Protocol: (§1) T or B cells (4-8×10^4 cells) were added to 200 μl of medium (see above) containing 50 μl of either PBS (vehicle control), aminodextran, BBa-aminodextran, or CsA-BBa-aminodextran at a concentration of 5×10^-7 M, in the presence or absence of various inhibitors or solvent controls, gently agitated on a platform shaker for 15 minutes at 25° C., incubated without agitation for 2-3 hours at 25° C., placed in a refrigerator and examined for agglutination periodically. The end points can begin to be seen after about 2-3 hours.

DO-11.10 = assay: Cell agglutination assay, DO-11.10 T-cell hybridoma; assay type: cell-based
Protocol: as §1

32-6.F12 = assay: Cell agglutination assay, 32-6.F12 T-cell hybridoma; assay type: cell-based
Protocol: as §1

[1] = system: rabbit antibody R575 (anti-CsA); assay: Inhibition RIA for antibody specificity with CsA analogues; assay type: binding; conditions: for IC50: read-out: IC50 (Concentration for 50% inhibition), inhibition of [3H]dihydro CsA binding to R575, overnight at 4° C.; for affinity group for the antibodies (inhibition RIA): result in words
Protocol: Serum antibodies were detected by a modification of the published radioimmunoassay (5, 12 ). […] Binding by diluted preimmune serum was used as a control. Free and bound ligand were separated with charcoal supplied by Sandoz according to their procedure.
The cyclosporin derivatives were dissolved in 100% ethanol at a concentration of 5.0 mg/ml, stored at -20° C., and diluted to final concentrations of 0.27 nM to 2.7 μM in Sandoz buffer B for the inhibition experiments.

| IC50 [1] [nM] | inhibition of [3H]CsA binding obtainable ([1]; maximal inhibition by competing derivative) | SMILES | inhibition of agglutination of EL-4 cells by CsA-BBa-aminodextran (EL-4 cells) | inhibition of agglutination of DO-11.10 cells by CsA-BBa-aminodextran (DO-11.10) | inhibition of agglutination of 32-6.F12 cells by CsA-BBa-aminodextran (32-6.F12) | affinity group for the antibodies (inhibition RIA) [1] |
| --- | --- | --- | --- | --- | --- | --- |
| – | – | O=C(O)c1ccc(C(=O)c2ccccc2)cc1 [BBa, 4-Benzyoylbenzoic acid] | no inhibition | not | not | – |
| 11.5 | – | C/C=C/C[C@@H](C)[C@@H](O)[C@H]1C(=O)N[C@@H]([C@@H](C)O)C(=O)N(C)CC(=O)N(C)[C@@H](CC(C)C)C(=O)N[C@@H](C(C)C)C(=O)N(C)[C@@H](CC(C)C)C(=O)N[C@@H](C)C(=O)N[C@H](C)C(=O)N(C)[C@@H](CC(C)C)C(=O)N(C)[C@@H](CC(C)C)C(=O)N(C)[C@@H](C(C)C)C(=O)N1C [CsC] | – | – | – | Moderate affinities |
| 4.3 | – | C/C=C/C[C@@H](C)[C@@H](O)[C@H]1C(=O)N[C@@H](C(C)C)C(=O)N(C)CC(=O)N(C)[C@@H](CC(C)C)C(=O)N[C@@H](C(C)C)C(=O)N(C)[C@@H](CC(C)C)C(=O)N[C@@H](C)C(=O)N[C@H](C)C(=O)N(C)[C@@H](CC(C)C)C(=O)N(C)[C@@H](CC(C)C)C(=O)N(C)[C@@H](C(C)C)C(=O)N1C [CsD] | – | – | – | high affinity group; also recorded: bind best |
| 7 | – | C/C=C/C[C@@H](C)[C@@H](O)[C@H]1C(=O)N[C@@H](CC)C(=O)N(C)CC(=O)N(C)[C@@H](CC(C)C)C(=O)N[C@@H](C(C)C)C(=O)N(C)[C@@H](CC(C)C)C(=O)N[C@@H](C)C(=O)N[C@H](C)C(=O)N(C)[C@@H](CC(C)C)C(=O)N(C)[C@@H](CC(C)C)C(=O)N(C)[C@@H]([C@@H](C)CC)C(=O)N1C [Derivative 032] | – | – | – | high affinity group; also recorded: bind best |
| 18 | – | C/C=C/C[C@@H](C)[C@@H](O)[C@H]1C(=O)N[C@@H](CC)C(=O)N(C)CC(=O)N(C)[C@@H](CC(C)C)C(=O)N[C@@H](C(C)C)C(=O)N(C)[C@H](C)C(=O)N[C@@H](C)C(=O)N[C@H](C)C(=O)N(C)[C@@H](CC(C)C)C(=O)N(C)[C@@H](CC(C)C)C(=O)N(C)[C@@H](C(C)C)C(=O)N1C [Derivative 039] | – | – | – | Moderate affinities |
| 6 | – | C/C=C/C[C@@H](C)[C@@H](OC(C)=O)[C@H]1C(=O)N[C@@H](CC)C(=O)N(C)CC(=O)N(C)[C@@H](CC(C)C)C(=O)N[C@@H](C(C)C)C(=O)N(C)[C@@H](CC(C)C)C(=O)N[C@@H](C)C(=O)N[C@H](C)C(=O)N(C)[C@@H](CC(C)C)C(=O)N(C)[C@@H](CC(C)C)C(=O)N(C)[C@@H](C(C)C)C(=O)N1C [Derivative 243] | – | – | – | high affinity group; also recorded: bind best |
| 12 | – | C/C=C/C[C@@H](C)[C@@H](O)[C@H]1C(=O)N[C@@H](CC)C(=O)N2CCC[C@H]2C(=O)N(C)[C@@H](CC(C)C)C(=O)N[C@@H](C(C)C)C(=O)N(C)[C@@H](CC(C)C)C(=O)N[C@@H](C)C(=O)N[C@H](C)C(=O)N(C)[C@@H](CC(C)C)C(=O)N(C)[C@@H](CC(C)C)C(=O)N(C)[C@@H](C(C)C)C(=O)N1C [Derivative 582] | – | – | – | Moderate affinities |
| 4.8 | – | C/C=C/C[C@@H](C)[C@@H](O)[C@H]1C(=O)N[C@@H]([C@@H](C)OC(C)=O)C(=O)N(C)CC(=O)N(C)[C@@H](CC(C)C)C(=O)N[C@@H](C(C)C)C(=O)N(C)[C@@H](CC(C)C)C(=O)N[C@@H](C)C(=O)N[C@H](C)C(=O)N(C)[C@@H](CC(C)C)C(=O)N(C)[C@@H](CC(C)C)C(=O)N(C)[C@@H](C(C)C)C(=O)N1C [Derivative 665] | – | – | – | high affinity group; also recorded: bind best |
| 2700 | more than 50% | C/C=C/C[C@@H](C)[C@@H](O)[C@H]1C(=O)N[C@@H](CC)C(=O)N(C)CC(=O)N(C)[C@@H](CC(C)C)C(=O)N[C@@H](C(C)C)C(=O)N(C)[C@@H](CC(C)C)C(=O)N[C@@H](C)C(=O)N[C@H](COC(C)(C)C)C(=O)N(C)[C@@H](CC(C)C)C(=O)N(C)[C@@H](CC(C)C)C(=O)N(C)[C@@H](C(C)C)C(=O)N1C [Derivative 717] | – | – | – | inhibits very poorly; also recorded: low affinity |
